From ChEMBL document CHEMBL4251606, “Design and characterization of α-lipoic acyl shikonin ester twin drugs as tubulin and PDK1 dual inhibitors” (Eur J Med Chem, 2018)
The source made the active and inactive calls. The calls are words filed in the database; no cut-off is given here.

Legend:
A549 = assay: Antiproliferative activity against human A549 cells after 24 hrs by MTT assay; assay type: functional, cell-based; details: A549, 24 h
HeLa [1] = assay: Cell cycle arrest in human HeLa cells assessed as accumulation of cells at G1 phase at 2 uM after 24 hrs by propidium iodide staining-based FACScan flow cytometric analysis (reference value: 62.92%); assay type: functional
HeLa [2] = assay: Cell cycle arrest in human HeLa cells assessed as accumulation of cells at S phase at 4 uM after 24 hrs by propidium iodide staining-based FACScan flow cytometric analysis (reference value: 20.16%); assay type: functional
HeLa [3] = assay: Cell cycle arrest in human HeLa cells assessed as accumulation of cells at G1 phase at 8 uM after 24 hrs by propidium iodide staining-based FACScan flow cytometric analysis (reference value: 62.92%); assay type: functional
HeLa [4] = assay: Cell cycle arrest in human HeLa cells assessed as accumulation of cells at S phase at 8 uM after 24 hrs by propidium iodide staining-based FACScan flow cytometric analysis (reference value: 20.16%); assay type: functional
HeLa [5] = assay: Cell cycle arrest in human HeLa cells assessed as accumulation of cells at G2/M phase at 8 uM after 24 hrs by propidium iodide staining-based FACScan flow cytometric analysis (reference value: 16.82%); assay type: functional
HeLa [6] = assay: Inhibition of microtubule polymerization in human HeLa cells at 4 uM after 24 hrs by rhodamine/DAPI staining-based confocal microscopic analysis; assay type: cell-based
[7] = molecular target: [Pyruvate dehydrogenase (acetyl-transferring)] kinase isozyme 1, mitochondrial (Homo sapiens) (UniProt Q15118); assay: Inhibition of PDK1 in human HeLa cells assessed as decrease in PDH-E1 alpha p-ser232 expression up to 8 uM by Western blot analysis; assay type: cell-based
[8] = molecular target: [Pyruvate dehydrogenase (acetyl-transferring)] kinase isozyme 1, mitochondrial (Homo sapiens) (UniProt Q15118); assay: Inhibition of PDK1 in human HeLa cells assessed as decrease in PDH-E1 alpha p-ser293 expression up to 8 uM by Western blot analysis; assay type: cell-based
HeLa [9] = assay: Induction of apoptosis in human HeLa cells assessed as early apoptotic cells at 1 uM after 24 hrs by Annexin V-APC/propidium iodide staining-based FACScan flow cytometric analysis (reference value: 6.46%); assay type: functional
HeLa [10] = assay: Induction of apoptosis in human HeLa cells assessed as late apoptotic cells at 1 uM after 24 hrs by Annexin V-APC/propidium iodide staining-based FACScan flow cytometric analysis (reference value: 7.22%); assay type: functional
HeLa [11] = assay: Induction of apoptosis in human HeLa cells assessed as early apoptotic cells at 2 uM after 24 hrs by Annexin V-APC/propidium iodide staining-based FACScan flow cytometric analysis (reference value: 6.46%); assay type: functional
HeLa [12] = assay: Induction of apoptosis in human HeLa cells assessed as viable cells at 4 uM after 24 hrs by Annexin V-APC/propidium iodide staining-based FACScan flow cytometric analysis (reference value: 85.1%); assay type: functional; details: read-out: Activity
HeLa [13] = assay: Induction of apoptosis in human HeLa cells assessed as early apoptotic cells at 4 uM after 24 hrs by Annexin V-APC/propidium iodide staining-based FACScan flow cytometric analysis (reference value: 6.46%); assay type: functional
HeLa [14] = assay: Induction of apoptosis in human HeLa cells assessed as late apoptotic cells at 4 uM after 24 hrs by Annexin V-APC/propidium iodide staining-based FACScan flow cytometric analysis (reference value: 7.22%); assay type: functional
HeLa [15] = assay: Induction of apoptosis in human HeLa cells assessed as necrotic cells at 4 uM after 24 hrs by Annexin V-APC/propidium iodide staining-based FACScan flow cytometric analysis (reference value: 1.18%); assay type: functional
HeLa [16] = assay: Induction of apoptosis in human HeLa cells assessed as viable cells at 6 uM after 12 hrs by Annexin V-APC/propidium iodide staining-based FACScan flow cytometric analysis (reference value: 93%); assay type: functional; details: read-out: Activity
HeLa [17] = assay: Induction of apoptosis in human HeLa cells assessed as early apoptotic cells at 6 uM after 12 hrs by Annexin V-APC/propidium iodide staining-based FACScan flow cytometric analysis (reference value: 2.45%); assay type: functional
HeLa [18] = assay: Induction of apoptosis in human HeLa cells assessed as late apoptotic cells at 6 uM after 12 hrs by Annexin V-APC/propidium iodide staining-based FACScan flow cytometric analysis (reference value: 3.84%); assay type: functional
HeLa [19] = assay: Induction of apoptosis in human HeLa cells assessed as necrotic cells at 6 uM after 12 hrs by Annexin V-APC/propidium iodide staining-based FACScan flow cytometric analysis (reference value: 0.725%); assay type: functional
HeLa [20] = assay: Induction of apoptosis in human HeLa cells assessed as necrotic cells at 6 uM after 24 hrs by Annexin V-APC/propidium iodide staining-based FACScan flow cytometric analysis (reference value: 0.725%); assay type: functional
HeLa [21] = assay: Induction of apoptosis in human HeLa cells assessed as viable cells at 6 uM after 36 hrs by Annexin V-APC/propidium iodide staining-based FACScan flow cytometric analysis (reference value: 93%); assay type: functional; details: read-out: Activity
HeLa [22] = assay: Induction of apoptosis in human HeLa cells assessed as increase in cleaved PARP expression up to 8 uM after 24 hrs by Western blot analysis; assay type: functional, cell-based
HeLa [23] = assay: Induction of apoptosis in human HeLa cells assessed as increase in caspase-3 cleavage up to 8 uM after 24 hrs by Western blot analysis; assay type: functional, cell-based
HeLa [24] = assay: Induction of apoptosis in human HeLa cells assessed as increase in Bax expression up to 8 uM after 24 hrs by Western blot analysis; assay type: functional, cell-based
HeLa [25] = assay: Induction of mitochondrial membrane potential loss in human HeLa cells assessed as cells with high membrane potential at 4 uM after 12 hrs by JC-1 staining-based flow cytometric analysis (reference value: 85.8%); assay type: functional
HeLa [26] = assay: Induction of mitochondrial membrane potential loss in human HeLa cells assessed as cells with low membrane potential at 2 uM after 12 hrs by JC-1 staining-based flow cytometric analysis (reference value: 9.31%); assay type: functional
HeLa [27] = assay: Induction of apoptosis in human HeLa cells assessed as late apoptotic cells by measuring FL3-H+ cells at 4 uM after 12 hrs by propidium iodide staining-based flow cytometric analysis (reference value: 3.66%); assay type: functional
HeLa [28] = assay: Antitumor activity against human HeLa cells xenografted in nude mouse assessed as reduction in tumor volume administered intraperitomeally once in every 2 days for 15 days; assay type: functional
Mus musculus = assay: Toxicity in nude mouse xenografted with human HeLa cells assessed as loss in body weight at 0.5 to 2 mg/kg, ip administered once in every 2 days for 15 days; assay type: organism-based; details: in vivo
HeLa [29] = assay: Induction of apoptosis in human HeLa cells assessed as late apoptotic cells by measuring FL3-H+ cells at 5.6 uM after 24 hrs by propidium iodide staining-based FACScan flow cytometric analysis (reference value: 2.14%); assay type: functional
HeLa [30] = assay: Induction of apoptosis in human HeLa cells assessed as late apoptotic cells by measuring FL3-H+ cells at 6 uM after 36 hrs by propidium iodide staining-based FACScan flow cytometric analysis (reference value: 2.13%); assay type: functional
[31] = molecular target: [Pyruvate dehydrogenase (acetyl-transferring)] kinase isozyme 1, mitochondrial (Homo sapiens) (UniProt Q15118); assay: Inhibition of PDK1 in human HeLa cells assessed as increase in PDH-E1 alpha expression at 6 uM by Western blot analysis; assay type: cell-based
HeLa [32] = assay: Reduction in glucose consumption in human HeLa cells at 2 to 8 uM; assay type: functional, cell-based
HeLa [33] = assay: Reduction in lactate production in human HeLa cells at 2 to 8 uM; assay type: functional, cell-based

**Q.** What does the source list for `CC(C)=CC[C@@H](OC(=O)CCCC[C@@H]1CCSC(c2ccccc2)S1)C1=CC(=O)c2c(O)ccc(O)c2C1=O` (stereo not given in full)?
**A.** IC50 (A549): 16.4 µM; Activity (HeLa [1]): 50.96%; Activity (HeLa [2]): 29.06%; Activity (HeLa [3]): 15.42%; Activity (HeLa [4]): 32.14%; Activity (HeLa [5]): 52.44%; inhibition (HeLa [6]): Active; inhibition [7]: Active; inhibition [8]: inactive; Activity (HeLa [9]): 15.8%; Activity (HeLa [10]): 42.7%; Activity (HeLa [11]): 15.5%; viability at 4 µM (HeLa [12]): 18.1%; Activity (HeLa [13]): 6.67%; Activity (HeLa [14]): 58.4%; Activity (HeLa [15]): 16.9%; viability at 6 µM (HeLa [16]): 48.8%; Activity (HeLa [17]): 19%; Activity (HeLa [18]): 29.9%; Activity (HeLa [19]): 2.31%; Activity (HeLa [20]): 10%; viability at 6 µM (HeLa [21]): 26.4%; Activity (HeLa [22]): Active; Activity (HeLa [23]): Active; Activity (HeLa [24]): Active; Activity (HeLa [25]): 10.3%; Activity (HeLa [26]): 53%; Activity (HeLa [27]): 4.74%; Activity (HeLa [28]): Dose-dependent effect; Activity (Mus musculus): Non-Toxic; Activity (HeLa [29]): 85.2%; Activity (HeLa [30]): 55.2%; inhibition [31]: Active; Activity (HeLa [32]): Active; Activity (HeLa [33]): Active
